The values below are quoted from earlier work in patent US8507652B2, “Pharmaceutical composition, dressing and method for treating skin lesion, intermediate composition and process for preparing said dressing, and use of cerium salt associated with a collagen matrix” (priority 2008, dated 2013).

One series has as its system 39 bacteria species. Conditions: 39 bacteria species studied, in vitro.
The subject of the next series is TNF-[…]. Conditions: lesions treated with cerium nitrate.
The test system of another series is interleucin-6. Conditions: lesions treated with cerium nitrate.

As for `O=[N+]([O-])[O-].O=[N+]([O-])[O-].O=[N+]([O-])[O-].[Ce+3]` [cerium nitrate], the concentration inhibiting growth in the series on 39 bacteria species is listed as about 0.0004 M. Further, in the series with TNF-[…], the “TNF-[…] level” value is listed as “reduction”. Also, in the series with interleucin-6, the interleucin-6 level result is “increase”.
